Where a name gives a salt, the structure may show the parent alone. Read-outs that look alike come from different tables or passages of the source.
Assays:
[1] = test system: E. coli 257; assay: microbe, parasite or virus in culture; assay type: cell-based; details: agar dilution
Procedure: (§1) In vitro activity of the compounds of the present invention was measured by the Minimum Inhibitory Concentration (MIC) in micrograms/ml utilizing the Agar Dilution Method, which is well known in the art, against a variety of gram-negative and gram-positive organisms.

[2] = test system: E. coli ATCC 25922; assay: microbe, parasite or virus in culture; assay type: cell-based
Procedure: as §1

[3] = test system: E. coli TEM-1; assay: microbe, parasite or virus in culture; assay type: cell-based; details: agar dilution
Procedure: as §1

[4] = test system: Enter. cloacae P99; assay: microbe, parasite or virus in culture; assay type: cell-based; details: agar dilution
Procedure: as §1

[5] = test system: Cit. freundi BS-16; assay: In vitro MIC, Agar Dilution Method; assay type: cell-based
Procedure: as §1

[6] = test system: Enter. cloacae 5699; assay: In vitro MIC, Agar Dilution Method; assay type: cell-based
Procedure: as §1

[7] = test system: K. pneumoniae A; assay: In vitro MIC, Agar Dilution Method; assay type: cell-based
Procedure: as §1

[8] = test system: Prot. mirabilis 90; assay: In vitro MIC, Agar Dilution Method; assay type: cell-based
Procedure: as §1

[9] = test system: Prot. vulgaris 1028 BC; assay: In vitro MIC, Agar Dilution Method; assay type: cell-based
Procedure: as §1

[10] = test system: Prot. vulgaris ATCC 6380; assay: In vitro MIC, Agar Dilution Method; assay type: cell-based
Procedure: as §1

[11] = test system: Ps. aeruginosa 18SH; assay: In vitro MIC, Agar Dilution Method; assay type: cell-based
Procedure: as §1

[12] = test system: Ps. aeruginosa 5712; assay: In vitro MIC, Agar Dilution Method; assay type: cell-based
Procedure: as §1

[13] = test system: Ps. aeruginosa 765; assay: In vitro MIC, Agar Dilution Method; assay type: cell-based
Procedure: as §1

[14] = test system: Ps. aeruginosa 8780; assay: In vitro MIC, Agar Dilution Method; assay type: cell-based
Procedure: as §1

[15] = test system: Ps. aeruginosa ATCC 27853; assay: In vitro MIC, Agar Dilution Method; assay type: cell-based
Procedure: as §1

[16] = test system: Ser. marcescens 1071; assay: In vitro MIC, Agar Dilution Method; assay type: cell-based
Procedure: as §1

[17] = test system: Ser. marcescens SM; assay: In vitro MIC, Agar Dilution Method; assay type: cell-based
Procedure: as §1

[18] = test system: Staph. aureus 1059B; assay: In vitro MIC, Agar Dilution Method; assay type: cell-based
Procedure: as §1

[19] = test system: Staph. aureus 67; assay: In vitro MIC, Agar Dilution Method; assay type: cell-based
Procedure: as §1

[20] = test system: Staph. aureus 753; assay: In vitro MIC, Agar Dilution Method; assay type: cell-based
Procedure: as §1

[21] = test system: Staph. aureus ATCC 29213; assay: In vitro MIC, Agar Dilution Method; assay type: cell-based
Procedure: as §1

[22] = test system: Staph. aureus Smith; assay: In vitro MIC, Agar Dilution Method; assay type: cell-based
Procedure: as §1

[23] = test system: Str. faecalis ATCC 29212; assay: In vitro MIC, Agar Dilution Method; assay type: cell-based
Procedure: as §1

[24] = test system: Str. pneumoniae 6301; assay: In vitro MIC, Agar Dilution Method; assay type: cell-based
Procedure: as §1

[25] = test system: Str. pyogenes 4; assay: In vitro MIC, Agar Dilution Method; assay type: cell-based
Procedure: as §1

[26] = Chemical stability (half-life) in phosphate buffer by HPLC; assay type: physicochemical; details: pH 7.4, phosphate buffer (pH7.40; 37°C)
Procedure: Chemical stability (half-life) in phosphate buffer (pH 7.40; 37°C) of some of the compounds of the present invention was determined using high performance liquid chromatography (HPLC). A Hamilton PRP-1 (250 mm x 4.1 mm) column was used with UV detection at 280 nm. The mobile phase used consisted of a 0.01 M solution of tetradecyltrimethylammonium bromide in a mixture of 70% 0.072M phosphate buffer (pH 8.2) and 30% acetonitrile. In some experiments, minor adjustments to the pH and in the acetonitrile concentration were made to improve resolutions.

[27] = Escherichia coli, read-out: MIC
[28] = Pseudomonas aeruginosa, read-out: MIC
[29] = Staphylococcus aureus, read-out: MIC

N[C@@H](C(=O)N[C@@H]1C(=O)N2C(C(=O)O)=C(CN3CCN(c4cc5c(cc4F)c(=O)c(C(=O)O)cn5C4CC4)CC3)CS[C@H]12)c1ccccc1 [Compound D, [6R-[6α,7β(R)]]-7-[(Aminophenylacetyl)amino]-3-[[4-(3-carboxy-1-cyclopropyl-6-fluoro-1,4-dihydro-4-oxo-7-quinolinyl)-1-piperazinyl]methyl]-8-oxo-5-thia-1-azabicyclo[4.2.0]oct-2-ene-2-carboxylic acid trifluoroacetic acid salt]
MIC [1, 27]: 31.3 µg/mL | MIC ([2]; Escherichia coli, ATCC25922, agar dilution, read-out: MIC): 31.3 µg/mL | MIC [3, 27]: 31.3 µg/mL | MIC ([4]; Enterobacter cloacae, read-out: MIC): 31.3 µg/mL | MIC ([5]; read-out: MIC): 62.5 µg/mL | MIC ([6]; Enterobacter cloacae, Enter. cloacae 5699, agar dilution, read-out: MIC): 125 µg/mL | MIC ([7]; Klebsiella pneumoniae, K. pneumoniae A, agar dilution, read-out: MIC): 31.3 µg/mL | MIC ([8]; Proteus mirabilis, Prot. mirabilis 90, agar dilution, read-out: MIC): 250 µg/mL | MIC ([9]; Proteus vulgaris, read-out: MIC): 62.5 µg/mL | MIC ([10]; Proteus vulgaris, ATCC6380, read-out: MIC): 62.5 µg/mL | MIC [11, 28]: 1000 µg/mL | MIC [12, 28]: 4000 µg/mL | MIC [13, 28]: 2000 µg/mL | MIC [14, 28]: 1000 µg/mL | MIC ([15]; Pseudomonas aeruginosa, ATCC27853, read-out: MIC): 1000 µg/mL | MIC ([16]; Serratia marcescens, Ser. marcescens 1071, agar dilution, read-out: MIC): 125 µg/mL | MIC ([17]; Serratia marcescens, read-out: MIC): 125 µg/mL | MIC [18, 29]: 1000 µg/mL | MIC ([19]; Staphylococcus aureus, Staph. aureus 67, agar dilution, read-out: MIC): 2000 µg/mL | MIC [20, 29]: 2000 µg/mL | MIC ([21]; Staphylococcus aureus, ATCC29213, read-out: MIC): 1000 µg/mL | MIC [22, 29]: 500 µg/mL | MIC ([23]; Enterococcus faecalis, ATCC29212, Str. faecalis ATCC 29212, agar dilution, read-out: MIC): 4000 µg/mL | MIC ([24]; Streptococcus pneumoniae, Str. pneumoniae 6301, agar dilution, read-out: MIC): 2000 µg/mL | MIC ([25]; Streptococcus pyogenes, Str. pyogenes 4, agar dilution, read-out: MIC): 1000 µg/mL

O=C([O-])C1=C(CN2CCN(c3cc4c(cc3F)c(=O)c(C(=O)[O-])cn4C3CC3)CC2)CS[C@@H]2[C@H](NC(=O)C(C(=O)[O-])c3ccccc3)C(=O)N12.[Na+].[Na+].[Na+] (stereo partly drawn) [Compound F, (6R-trans)-3-[[4-(3-Carboxy-1-cyclopropyl-6-fluoro-1,4-dihydro-4-oxo-7-quinolinyl)-1-piperazinyl]methyl]-7-[(carboxyphenylacetyl)amino]-8-oxo-5-thia-1-azabicyclo[4.2.0]oct-2-ene-2-carboxylic acid sodium salt]
MIC ([6]; Enterobacter cloacae, 5699): 500 µg/mL | MIC ([7]; Klebsiella pneumoniae): 1000 µg/mL | MIC ([8]; Proteus mirabilis, 90): 1000 µg/mL | MIC ([16]; Serratia marcescens, 1071): 500 µg/mL | MIC ([19]; Staphylococcus aureus, 67): 8000 µg/mL | MIC ([23]; Enterococcus faecalis, ATCC29212): 32000 µg/mL | MIC ([24]; Streptococcus pneumoniae, 6301): 500 µg/mL | MIC ([25]; Streptococcus pyogenes, 4): 500 µg/mL | half-life [26]: 228 h

CC(C)(O/N=C(\C(=O)N[C@@H]1C(=O)N2C(C(=O)[O-])=C(CN3CCN(c4cc5c(cc4F)c(=O)c(C(=O)[O-])cn5C4CC4)CC3)CS[C@H]12)c1csc(N)n1)C(=O)NNC(=O)c1ccc(O)c(O)c1.[Na+].[Na+] [Compound G, [6R-[6α,7β(Z)]]-7-[[[(2-Amino-4-thiazolyl)[1-[[(3,4-dihydroxybenzoyl)hydrazino]carbonyl]-1-methylethoxy]imino]acetyl]amino]-3-[[4-(3-carboxy-1-cyclopropyl-6-fluoro-1,4-dihydro-4-oxo-7-quinolinyl)-1-piperazinyl]methyl]-8-oxo-5-thia-1-azabicyclo[4.2.0]oct-2-ene-2-carboxylic acid sodium salt]
MIC [1]: 125 µg/mL | MIC ([2]; agar dilution): 125 µg/mL | MIC [3]: 62.5 µg/mL | MIC [4]: 250 µg/mL | MIC [5]: 250 µg/mL | MIC ([6]; Enter. cloacae 5699, agar dilution): 250 µg/mL | MIC ([7]; K. pneumoniae A, agar dilution): 500 µg/mL | MIC ([8]; Prot. mirabilis 90, agar dilution): 500 µg/mL | MIC [9]: 250 µg/mL | MIC [10]: 125 µg/mL | MIC [11]: 500 µg/mL | MIC [12]: 250 µg/mL | MIC [13]: 500 µg/mL | MIC [14]: 250 µg/mL | MIC [15]: 500 µg/mL | MIC ([16]; Ser. marcescens 1071, agar dilution): 500 µg/mL | MIC [17]: 500 µg/mL | MIC [18]: 4000 µg/mL | MIC ([19]; Staph. aureus 67, agar dilution): 8000 µg/mL | MIC [20]: 4000 µg/mL | MIC [21]: 4000 µg/mL | MIC [22]: 2000 µg/mL | MIC ([23]; Str. faecalis ATCC 29212, agar dilution): 4000 µg/mL | MIC ([24]; Str. pneumoniae 6301, agar dilution): 125 µg/mL | MIC ([25]; Str. pyogenes 4, agar dilution): 250 µg/mL

From patent EP0550775A1, “Cephalosporin derivatives” (F. HOFFMANN-LA ROCHE AG, priority 1992, dated 1993)
